Measured values reported in ChEMBL document CHEMBL1127151, “Derivatives of cyclosporin at position 2 as probes for cyclophilin” (1993).

How the values were obtained:
T-cell = test: The immunosuppressive activity of compound was measured with the help of a reporter gene assay (IL2_RGA), activity relative to compound 1; format: functional, Homo sapiens
Mus musculus = species on record: Mus musculus; test: The immunosuppressive activity of compound was measured with the help of a mixed lymphocyte reaction in mouse (MLR_M), activity relative to compound 1; format: functional
[1] = In vitro binding affinity of compound was measured to Cyclophilin under competitive ELISA system, activity relative to compound 1

| Compound | Ratio [1] | Ratio (T-cell) | Ratio (Mus musculus) |
| --- | --- | --- | --- |
| C/C=C/C[C@@H](C)[C@@H](O)[C@H]1C(=O)N[C@@H]([C@H](O)CC)C(=O)N(C)CC(=O)N(C)[C@@H](CC(C)C)C(=O)N[C@@H](C(C)C)C(=O)N(C)[C@@H](CC(C)C)C(=O)N[C@@H](C)C(=O)N[C@H](C)C(=O)N(C)[C@@H](CC(C)C)C(=O)N(C)[C@@H](CC(C)C)C(=O)N(C)C(C(C)C)C(=O)N1C (single isomer, unassigned) | 5.2 | 3 | 2.3 |
| C/C=C/C[C@@H](C)[C@@H](O)[C@H]1C(=O)N[C@@H](CC2CC2)C(=O)N(C)CC(=O)N(C)[C@@H](CC(C)C)C(=O)N[C@@H](C(C)C)C(=O)N(C)[C@@H](CC(C)C)C(=O)N[C@@H](C)C(=O)N[C@H](C)C(=O)N(C)[C@@H](CC(C)C)C(=O)N(C)[C@@H](CC(C)C)C(=O)N(C)C(C(C)C)C(=O)N1C (single isomer, unassigned) | 250 | 225 | 120 |
| C/C=C/C[C@@H](C)[C@@H](O)[C@H]1C(=O)N[C@@H]([C@@H](C)O)C(=O)N(C)CC(=O)N(C)[C@@H](CC(C)C)C(=O)N[C@@H](C(C)C)C(=O)N(C)[C@@H](CC(C)C)C(=O)N[C@@H](C)C(=O)N[C@H](C)C(=O)N(C)[C@@H](CC(C)C)C(=O)N(C)[C@@H](CC(C)C)C(=O)N(C)C(C(C)C)C(=O)N1C (single isomer, unassigned) | 1.4 | 1 | 1.7 |

Now from value to molecule, other results behind:

| Ratio [1] | Compound | Ratio (T-cell) | Ratio (Mus musculus) |
| --- | --- | --- | --- |
| 250 | C/C=C/C[C@@H](C)[C@@H](O)[C@H]1C(=O)N[C@@H](CC(Cl)Cl)C(=O)N(C)CC(=O)N(C)[C@@H](CC(C)C)C(=O)N[C@@H](C(C)C)C(=O)N(C)[C@@H](CC(C)C)C(=O)N[C@@H](C)C(=O)N[C@H](C)C(=O)N(C)[C@@H](CC(C)C)C(=O)N(C)[C@@H](CC(C)C)C(=O)N(C)C(C(C)C)C(=O)N1C (single isomer, unassigned) | 200 | 135 |
| 207 | C/C=C/C[C@@H](C)[C@@H](O)[C@H]1C(=O)N[C@@H](C[C@@H](C)O)C(=O)N(C)CC(=O)N(C)[C@@H](CC(C)C)C(=O)N[C@@H](C(C)C)C(=O)N(C)[C@@H](CC(C)C)C(=O)N[C@@H](C)C(=O)N[C@H](C)C(=O)N(C)[C@@H](CC(C)C)C(=O)N(C)[C@@H](CC(C)C)C(=O)N(C)C(C(C)C)C(=O)N1C (single isomer, unassigned) |  |  |
| 4 | C/C=C/C[C@@H](C)[C@@H](O)[C@H]1C(=O)N[C@@H](CCC)C(=O)N(C)CC(=O)N(C)[C@@H](CC(C)C)C(=O)N[C@@H](C(C)C)C(=O)N(C)[C@@H](CC(C)C)C(=O)N[C@@H](C)C(=O)N[C@H](C)C(=O)N(C)[C@@H](CC(C)C)C(=O)N(C)[C@@H](CC(C)C)C(=O)N(C)C(C(C)C)C(=O)N1C (single isomer, unassigned) [GECLOSPORIN] | 2.6 | 1.6 |
